{"source": "patent US20120322060A1", "about": "“DIAGNOSIS AND MONITORING TREATMENT OF PSYCHIATRIC DISEASES WITH SPADIN AND RELATED METHODS” (CENTRE NATIONAL DE LE RECHERCHE SCIENTIFIQUE - CNRS -, priority 2011, published 2012)", "key": {"rats": {"test_system": "rats", "experiment": "Forced Swim Test (FST) in rats", "assay_type": "in vivo, rat", "details": "acute i.p. 10^-5 M, 30 min before test", "description": "Male Sprague-Dawley rats (Janvier, France), weighing 250-300 g were also used for the FST. Rats experienced a pretest session followed 24 h later by a test session. For both the pretest and the test sessions, conducted under low illumination (15 W), the animals were placed in a plastic cylindrical tank (50 cm high by 20 cm in diameter) filled with 40 cm deep water at 24° C. The pretest was carried out for 15 minutes and the test for 5 minutes in the same tank. The total period of immobility was analyzed during the last 4 min."}, "mice": {"test_system": "mice", "experiment": "Conditioned Suppression of Motility test (CMST)", "assay_type": "in vivo, mouse", "description": "Mice were placed in a rectangular cage (20×20×27 cm) with a metallic grid floor, located in a sound-proof room illuminated by a 75 W bulb. There were 12 squares drawn on the floor for counting animal displacements. On the first day, the mouse was left in the test cage for 6 min and received 30 electric footshocks of 1.8 mA during 200 ms (one shock every 12 s.). On the second day, the mouse was again placed in the same cage without receiving electric footshocks (conditioned suppression group). Motility changes were observed by counting the number of squares crossed plus the number of climbing in 6 min. Each control group was treated exactly by the same way, except for the absence of the electric foot-shock. In this test, the mice learned to associate a conditioned stimulus (CS: test chamber) with an unconditioned stimulus (US: footshocks). After the pairing of CS and US, a robust associative memory of the CS-US was formed such that the CS alone could elicit a fear response (behavioral immobility or freezing)."}}, "note": "Entries after “also recorded” stand apart in the source; their conditions may differ. No end group written: not given here."}
{"sequence": "APLPRWSGPIGVSWGLR [spadin]", "values": [{"measurement": "immobility time versus saline", "setting": "rats", "result": "significantly reduced immobility time; also recorded: shorter time of immobility"}, {"measurement": "reduction of conditioned suppression of motility", "setting": "mice; i.v., 10^-6 M", "result": 84.4, "unit": "%"}, {"measurement": "effect in CMST", "setting": "mice; injection in kcnk2-/- mice", "result": "did not induce any change"}, {"measurement": "motility (squares crossed plus climbings)", "setting": "mice; shocked group, acute spadin", "result": "78±7", "unit": "counts"}]}
